Here are results for 20 compounds from patent US20180263996A1, “ARYL SULTAM DERIVATIVES AS RORc MODULATORS” (Genentech, Inc., priority 2015, published 2018).

The assay has as its target T1, RORc (Homo sapiens, UniProt P51449).
T1 construct: host or cells: E. coli
T1 sequence (P51449 269-508 limits assumed): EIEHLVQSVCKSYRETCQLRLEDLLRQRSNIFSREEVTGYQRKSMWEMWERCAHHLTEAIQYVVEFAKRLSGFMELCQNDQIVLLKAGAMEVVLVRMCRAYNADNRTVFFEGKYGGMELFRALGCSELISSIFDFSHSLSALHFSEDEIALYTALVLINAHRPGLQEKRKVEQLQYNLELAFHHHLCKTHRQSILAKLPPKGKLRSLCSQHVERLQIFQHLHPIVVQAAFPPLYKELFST
The experiment in a line: In Vitro RORc Ligand Binding Assay. The note with it: IC50 values for RORc. How it is done: This assay was used to determine a compound's potency in inhibiting activity of RORc by determining, Kiapp, IC50, or percent inhibition values.
On day of the assay, 100 uL of 0.05% CHAPS (in deionized H2O) was added to all wells of the GFB Unifilter plate and allowed soak for 1 h. A wash buffer of 50 mM HEPES (pH 7.4), 150 mM NaCl, and 5 mM MgCl2 was prepared to wash the filter plate. To prepare an assay buffer, BSA was added to the wash buffer to reach 0.01% and DTT was added to reach 1 mM.
The 20× compound stocks were diluted in DMSO with Assay Buffer 4-fold to reach 5× the final test concentration in 25% DMSO (10 uL compound+30 uL Assay Buffer). Solutions were mixed by aspiration several times with a pipette set on 50 uL volume.
For two point screening, 10 mM stock compound solutions were diluted in DMSO to obtain 200 uM (20× the high test concentration) and then diluted 10-fold further to reach 20 uM (20× the low test concentration). The 20× stocks were diluted 4-fold with Assay Buffer (10 uL compound+30 uL Assay Buffer) to reach 5× the test concentrations (50 uM and 5 uM) and 10 uL were added to two assay plates for the duplicate wells. With each concentration tested on 2 plates, each set of 80 compounds used 4 assay plates (1 uM and 10 uM, with n=2).
For 25-hydroxycholesterol in 25% DMSO/75% Assay Buffer; 10 uL per well was used for NSB samples. Wells for Total Binding and No Receptor sample determination contained 10 uL of 25% DMSO/75% Assay Buffer per well.
Add 20 uL to all wells to reach 6 nM final concentration in the assay.
Stock receptor solution was diluted in assay buffer to obtain 1.5 ug/mL in Assay Buffer. 20 uL was added to all wells. For No Receptor samples, 20 uL Assay Buffer was substituted for receptor solution.
Assay plates were 96-well polypropylene V-bottom plates. […] 10 uL of 25% DMSO/75% Assay Buffer was added to Total Binding or No Receptor wells. 10 uL of 5 uM 25-hydroxycholesterol in 25% DMSO/75% Assay Buffer was added to NSB wells. […] 20 uL of 1.5 ug/mL RORc receptor was added to wells (or 40 uL Assay Buffer to No R wells). Following addition to the wells, the plates were incubated 3 h at 25° C.
Using a Packard Filtermate Harvester, the filter plate were washed 4 times following transfer of the incubated samples. Plates were dry-filtered completely (2 h at 50° C. or overnight at room temperature). 50 uL Microscint 0 was added to all wells and read on Topcount protocol Inverted.
Final concentrations were as follows: 50 mM HEPES buffer (pH 7.4); 150 mM NaCl; 1 mM DTT; 5 mM MgCl2; 0.01% BSA; 5% DMSO; 0.6 ug/mL RORc receptor; 6 nM 25-[^3H]hydroxycholesterol. For NSB wells, 1 uM 25-hydroxycholesterol was also present.
As for `C[C@H]1CC[C@H](c2ccccc2)S(=O)(=O)N1Cc1ccc(C2(C(=O)NC3(C#N)CC3)CCOCC2)cc1F` (stereo in doubt) [Compound 36, N-(1-cyanocyclopropyl)-4-[3-fluoro-4-[[(3S,6R)-3-methyl-1,1-dioxo-6-phenyl-thiazinan-2-yl]methyl]phenyl]tetrahydropyran-4-carboxamide], the IC50 (as a rule, the concentration needed to halve the response being measured) was 234 nM.

In the case of `C[C@H]1CC[C@H](c2ccccc2)S(=O)(=O)N1Cc1cc(F)c(C2(NC(=O)C3CC3)COC2)cc1F` (stereo in doubt) [Compound 46, N-[3-[2,5-difluoro-4-[[(3S,6R)-3-methyl-1,1-dioxo-6-phenyl-thiazinan-2-yl]methyl]phenyl]oxetan-3-yl]cyclopropanecarboxamide], the concentration for half-maximal inhibition (IC50) worked out at 33.1 nM.

The compound `Cc1cc(C(=O)NC(C)c2cc(F)c(CN3[C@@H](C)CC[C@H](c4ccccc4)S3(=O)=O)cc2F)no1` (stereo in doubt) [Compound 51, N-[1-[2,5-difluoro-4-[[(3S,6R)-3-methyl-1,1-dioxo-6-phenyl-thiazinan-2-yl]methyl]phenyl]ethyl]-5-methyl-isoxazole-3-carboxamide] registered an IC50 of 7 nM.

Take `Cc1n[nH]cc1C(=O)NC(C)c1cc(F)c(CN2[C@@H](C)CC[C@H](c3ccccc3)S2(=O)=O)cc1F` (stereo in doubt) [Compound 53, N-[1-[2,5-difluoro-4-[[(3S,6R)-3-methyl-1,1-dioxo-6-phenyl-thiazinan-2-yl]methyl]phenyl]ethyl]-3-methyl-1H-pyrazole-4-carboxamide]: the IC50 was 14 nM.

As to `CC(NC(=O)c1ccno1)c1cc(F)c(CN2[C@@H](C)CC[C@H](c3ccccc3)S2(=O)=O)cc1F` (stereo in doubt) [Compound 55, N-[1-[2,5-difluoro-4-[[(3S,6R)-3-methyl-1,1-dioxo-6-phenyl-thiazinan-2-yl]methyl]phenyl]ethyl]isoxazole-5-carboxamide], the IC50 is 11 nM.

The compound `Cc1cc(C(=O)NC(C)c2cc(F)c(CN3[C@@H](C)CC[C@H](c4ccccc4)S3(=O)=O)cc2F)[nH]n1` (stereo in doubt) [Compound 56, N-[1-[2,5-difluoro-4-[[(3S,6R)-3-methyl-1,1-dioxo-6-phenyl-thiazinan-2-yl]methyl]phenyl]ethyl]-3-methyl-1H-pyrazole-5-carboxamide] showed an IC50 of 107 nM.

The compound `CC(NC(=O)c1cnccn1)c1cc(F)c(CN2[C@@H](C)CC[C@H](c3ccccc3)S2(=O)=O)cc1F` (stereo in doubt) [Compound 57, N-[1-[2,5-difluoro-4-[[(3S,6R)-3-methyl-1,1-dioxo-6-phenyl-thiazinan-2-yl]methyl]phenyl]ethyl]pyrazine-2-carboxamide] showed an IC50 of 145 nM.

The compound `CC(NC(=O)c1ccn(C)n1)c1cc(F)c(CN2[C@@H](C)CC[C@H](c3ccccc3)S2(=O)=O)cc1F` (stereo in doubt) [Compound 58, N-[1-[2,5-difluoro-4-[[(3S,6R)-3-methyl-1,1-dioxo-6-phenyl-thiazinan-2-yl]methyl]phenyl]ethyl]-1-methyl-pyrazole-3-carboxamide] gave an IC50 of 254 nM.

With `CC(NC(=O)c1c[nH]cn1)c1cc(F)c(CN2[C@@H](C)CC[C@H](c3ccccc3)S2(=O)=O)cc1F` (stereo in doubt) [Compound 59, N-[1-[2,5-difluoro-4-[[(3S,6R)-3-methyl-1,1-dioxo-6-phenyl-thiazinan-2-yl]methyl]phenyl]ethyl]-1H-imidazole-4-carboxamide], the 50% inhibitory concentration (IC50) turned out to be 93 nM.

On to `Cc1nocc1C(=O)NC(C)c1cc(F)c(CN2[C@@H](C)CC[C@H](c3ccccc3)S2(=O)=O)cc1F` (stereo in doubt) [Compound 60, N-[1-[2,5-difluoro-4-[[(3S,6R)-3-methyl-1,1-dioxo-6-phenyl-thiazinan-2-yl]methyl]phenyl]ethyl]-3-methyl-isoxazole-4-carboxamide], for which the IC50 was determined as 54.5 nM.

For the compound `CC(NC(=O)c1cnn(C)c1)c1cc(F)c(CN2[C@@H](C)CC[C@H](c3ccccc3)S2(=O)=O)cc1F` (stereo in doubt) [Compound 61, N-[1-[2,5-difluoro-4-[[(3S,6R)-3-methyl-1,1-dioxo-6-phenyl-thiazinan-2-yl]methyl]phenyl]ethyl]-1-methyl-pyrazole-4-carboxamide], the IC50 was determined as 14 nM.

In the case of `CC(NC(=O)c1cn(C)cn1)c1cc(F)c(CN2[C@@H](C)CC[C@H](c3ccccc3)S2(=O)=O)cc1F` (stereo in doubt) [Compound 62, N-[1-[2,5-difluoro-4-[[(3S,6R)-3-methyl-1,1-dioxo-6-phenyl-thiazinan-2-yl]methyl]phenyl]ethyl]-1-methyl-imidazole-4-carboxamide], the IC50 was found to be 389 nM.

For `CC(NC(=O)c1cncnc1)c1cc(F)c(CN2[C@@H](C)CC[C@H](c3ccccc3)S2(=O)=O)cc1F` (stereo in doubt) [Compound 63, N-[1-[2,5-difluoro-4-[[(3S,6R)-3-methyl-1,1-dioxo-6-phenyl-thiazinan-2-yl]methyl]phenyl]ethyl]pyrimidine-5-carboxamide], the IC50 amounted to 8.3 nM.

In turn, `Cc1ncoc1C(=O)NC(C)c1cc(F)c(CN2[C@@H](C)CC[C@H](c3ccccc3)S2(=O)=O)cc1F` (stereo in doubt) [Compound 64, N-[1-[2,5-difluoro-4-[[(3S,6R)-3-methyl-1,1-dioxo-6-phenyl-thiazinan-2-yl]methyl]phenyl]ethyl]-4-methyl-oxazole-5-carboxamide] had an IC50 of 231 nM.

In turn, `CC(NC(=O)c1cocn1)c1cc(F)c(CN2[C@@H](C)CC[C@H](c3ccccc3)S2(=O)=O)cc1F` (stereo in doubt) [Compound 65, N-[1-[2,5-difluoro-4-[[(3S,6R)-3-methyl-1,1-dioxo-6-phenyl-thiazinan-2-yl]methyl]phenyl]ethyl]oxazole-4-carboxamide] returned a 50% inhibitory concentration (IC50) of 167 nM.

`Cc1cc(C(=O)NC(C)c2cc(F)c(CN3[C@@H](C)CC[C@H](c4ccccc4)S3(=O)=O)cc2F)on1` (stereo in doubt) [Compound 67, N-[1-[2,5-difluoro-4-[[(3S,6R)-3-methyl-1,1-dioxo-6-phenyl-thiazinan-2-yl]methyl]phenyl]ethyl]-3-methyl-isoxazole-5-carboxamide]: the IC50 was found to be 6.5 nM.

`CC(NC(=O)c1cc[nH]n1)c1cc(F)c(CN2[C@@H](C)CC[C@H](c3ccccc3)S2(=O)=O)cc1F` (stereo in doubt) [Compound 68, N-[1-[2,5-difluoro-4-[[(3S,6R)-3-methyl-1,1-dioxo-6-phenyl-thiazinan-2-yl]methyl]phenyl]ethyl]-1H-pyrazole-3-carboxamide] displayed an IC50 of 83.3 nM.

For the compound `CC(NC(=O)c1ccnn1C)c1cc(F)c(CN2[C@@H](C)CC[C@H](c3ccccc3)S2(=O)=O)cc1F` (stereo in doubt) [Compound 69, N-[1-[2,5-difluoro-4-[[(3S,6R)-3-methyl-1,1-dioxo-6-phenyl-thiazinan-2-yl]methyl]phenyl]ethyl]-2-methyl-pyrazole-3-carboxamide], the 50% inhibitory concentration (IC50) worked out at 74.5 nM.

Take `CC(NC(=O)c1nc(N)n[nH]1)c1cc(F)c(CN2[C@@H](C)CC[C@H](c3ccccc3)S2(=O)=O)cc1F` (stereo in doubt) [Compound 71, 3-amino-N-[1-[2,5-difluoro-4-[[(3S,6R)-3-methyl-1,1-dioxo-6-phenyl-thiazinan-2-yl]methyl]phenyl]ethyl]-1H-1,2,4-triazole-5-carboxamide]: the 50% inhibitory concentration (IC50) turned out to be 47.9 nM.

For `CC(NC(=O)c1cncs1)c1cc(F)c(CN2[C@@H](C)CC[C@H](c3ccccc3)S2(=O)=O)cc1F` (stereo in doubt) [Compound 72, N-[1-[2,5-difluoro-4-[[(3S,6R)-3-methyl-1,1-dioxo-6-phenyl-thiazinan-2-yl]methyl]phenyl]ethyl]thiazole-5-carboxamide], the 50% inhibitory concentration (IC50) turned out to be 6.3 nM.
